# Patent US11896564B2, “Medical treatment for pathologic inflammation” (PHARMACYL AB, priority 2018, dated 2024)
# Structures can show the parent of a compound that is named as a salt.
# Experiments:
# [1] = tested on: LPS-induced TNF-α production in RAW264.7 murine macrophage cells; assay: Suppression of LPS-induced TNF-α production in RAW264.7 macrophages (ELISA); format: cell-based; settings: Mus musculus; 1 mM test substance; LPS 1 μg/ml; RAW264.7 cells
# Source text: UC is an inflammatory disease characterized by the infiltration of inflammatory cells, such as macrophages, into the lesioned colon. Macrophages serve a critical role in the initiation and propagation of inflammatory responses by releasing proinflammatory mediators, such as TNF-α. Lipopolysaccharide (LPS) is a potent initiator of an inflammatory response. During LPS stimulation, NF-κB signaling is activated to regulate the transcription of numerous genes involved in immunity and inflammation to produce proinflammatory cytokines, such as TNF-α. Suppression of LPS-induced TNF-α production in RAW264.7 macrophages treated with AABZ was investigated by evaluation of the generation of TNF-α. The aim of this study was to evaluate the anti-inflammatory activity of AABZ.
# The RAW264.7 macrophage line was maintained in DMEM supplemented with 5% FBS at 37° C. in a 5% […] air environment. The RAW264.7 cells were seeded in 96-well plates at a density of 1×10^5/ml and a volume of 200 μl/well. […] The supernatants were subsequently harvested at various time points and production of the proinflammatory cytokine TNF-α in the culture medium was determined using a commercially available enzyme-linked immunosorbent assay (ELISA) kit according to the manufacturer's protocol. […]
# [2] = tested on: DSS-induced acute colitis in Balb/c mice; assay: Dextran sulfate sodium (DSS)-induced acute colitis, disease activity index; format: in vivo; settings: day 5
# Experimental: The experiment was performed using 6-8-week-old female Balb/c mice after a one-week acclimatization period. The mice weighed 18-25 g, were purchased from Taconic (Denmark) and were maintained in a temperature and light-controlled facility with free access to standard rodent chow and water. Mice were randomized to the respective groups five days before start of treatment and were kept 5 to 6 animals per cage. […] The DSS intake was assessed daily.
# SASP (from Sigma-Aldrich, Sweden) was first dissolved in 0.2 M sodium hydroxide (NaOH) at a concentration higher than the required final concentration. Phosphate buffered saline (PBS) was added to the desired concentration and the pH was adjusted to 7.5-8.0 with NaOH or hydrochloric acid. SASP remained completely dissolved at this pH. Cpd A hydrochloride was dissolved in PBS to the desired concentration.
# All animal groups had free access to 5% DSS water solution for the entire test period. Treatments were administered from day 0 to day 5, either orally by gavage (SASP) or intraperitoneally (Cpd A), and in an administration volume of 5 ml/kg, twice daily with approximately an 8-hour interval. The control group (DSS only) received water (0.2 ml) orally twice daily. The parameters recorded in the experiment were stool consistency (0, normal; 2, loose stools; 4, watery diarrhoea), occurrence of blood in the stool (0, normal; 2, Hemoccult+; 4, gross bleeding), and body weight loss (0, none; 1, 1-5%; 2, 5-10%; 3, 10-20%; 4, >20%). Disease activity index (DAI) was calculated by summarizing the scores of these three parameters. Also the colon length and the colonic content of myeloperoxidase (MPO) were recorded. Data was statistically evaluated with analysis of variance (ANOVA). Least-squares means (LS means), and standard error (SE) of LS means were calculated.
compound,measurement,setting,value
CCN(CC)CCNC(=O)c1ccc(NC(C)=O)cc1 [4-Acetamido-N-[2-(diethylamino)ethyl]benzamide hydrochloride],inhibition at 1000 µM,[1],56%
"CCN(CC)CCNC(=O)c1ccc(NC(C)=O)c(Cl)c1 [Cpd A, 4-Acetamido-3-chloro-N-[2-(diethylamino)ethyl]benzamide hydrochloride]",Percent Reduction of Score (Disease Activity Index) vs control,[2]; Cpd A 50 mg/kg/day bid ip,7%
"O=C(O)c1cc(/N=N/c2ccc(S(=O)(=O)Nc3ccccn3)cc2)ccc1O [SASP, sulfasalazine]",Disease Activity Index LS means ± SE,[2]; SASP 20 mg/kg/day bid po,6.4 ± 0.5
same,Percent Reduction of Score (Disease Activity Index) vs control,[2]; SASP 20 mg/kg/day bid po,8%
same,Percent Reduction of Score (Disease Activity Index) vs control,[2]; SASP 40 mg/kg/day bid po,36%
